Measured values reported in patent US10131652B2, “Pyrimidinyloxy benzene derivatives as herbicides” (E. I. DU PONT DE NEMOURS AND COMPANY, priority 2014, dated 2018).

Experiments:
Type in all cases: in vivo
corn (Zea mays) = experiment: Test B pre-/postemergence plant response
Source text: (§1) Seeds of plant species selected from bamyardgrass (Echinochloa crus-galli), kochia (Kochia scoparia), ragweed (common ragweed, Ambrosia elatior), Italian ryegrass (Lolium multiflorum), large (Lg) crabgrass (Digitaria sanguinalis), giant foxtail (Setaria faberii), momingglory (Ipomoea spp.), pigweed (Amaranthus retroflexus), velvetleaf (Abutilon theophrasti), wheat (Triticum aestivum), and corn (Zea mays) were planted into a blend of loam soil and sand and treated preemergence with a directed soil spray using test chemicals formulated in a non-phytotoxic solvent mixture which included a surfactant. At the same time, plants selected from these crop and weed species and also blackgrass (Alopecurus myosuroides), and galium (catchweed bedstraw, Galium aparine) were planted in pots containing the same blend of loam soil and sand and treated with postemergence applications of test chemicals formulated in the same manner. Plants ranged in height from 2 to 10 cm and were in the one- to two-leaf stage for the postemergence treatment. Treated plants and untreated controls were maintained in a greenhouse for approximately 10 days, after which time all treated plants were compared to untreated controls and visually evaluated for injury. Plant response ratings, summarized in Table B, are based on a 0 to 100 scale where 0 is no effect and 100 is complete control. A dash (-) response means no test result.

[1] = tested on: barnyardgrass (Echinochloa crus-galli); experiment: Test B pre-/postemergence plant response
Source text: as §1

kochia (Kochia scoparia) = experiment: Test B pre-/postemergence plant response
Source text: as §1

[2] = tested on: pigweed (Amaranthus retroflexus); experiment: Test B pre-/postemergence plant response
Source text: as §1

[3] = tested on: ragweed (common ragweed, Ambrosia elatior); experiment: Test B pre-/postemergence plant response
Source text: as §1

[4] = tested on: Italian ryegrass (Lolium multiflorum); experiment: Test B pre-/postemergence plant response
Source text: as §1

[5] = tested on: giant foxtail (Setaria faberii); experiment: Test B pre-/postemergence plant response
Source text: as §1

[6] = tested on: wheat (Triticum aestivum); experiment: Test B pre-/postemergence plant response
Source text: as §1

[7] = tested on: galium (catchweed bedstraw, Galium aparine); experiment: Test B postemergence plant response
Source text: (§2) At the same time, plants selected from these crop and weed species and also blackgrass (Alopecurus myosuroides), and galium (catchweed bedstraw, Galium aparine) were planted in pots containing the same blend of loam soil and sand and treated with postemergence applications of test chemicals formulated in the same manner. Plants ranged in height from 2 to 10 cm and were in the one- to two-leaf stage for the postemergence treatment. Treated plants and untreated controls were maintained in a greenhouse for approximately 10 days, after which time all treated plants were compared to untreated controls and visually evaluated for injury. Plant response ratings, summarized in Table B, are based on a 0 to 100 scale where 0 is no effect and 100 is complete control. A dash (-) response means no test result.

[8] = tested on: blackgrass (Alopecurus myosuroides); experiment: Test B postemergence plant response
Source text: as §2

[9] = tested on: barnyardgrass (Echinochloa crus-galli); experiment: Test C flooded paddy test plant response; details: Flood, 250 g ai/ha; scale of 0 to 100 where 0 is no effect and 100 is complete control; 13 to 15 days
Method: (§3) Plant species in the flooded paddy test selected from rice (Oryza sativa), small-flower umbrella sedge (Cyperus difformis), ducksalad (Heteranthera limosa), and bamyardgrass (Echinochloa crus-galli) were grown to the 2-leaf stage for testing. At time of treatment, test pots were flooded to 3 cm above the soil surface, treated by application of test compounds directly to the paddy water, and then maintained at that water depth for the duration of the test. Treated plants and controls were maintained in a greenhouse for 13 to 15 days, after which time all species were compared to controls and visually evaluated. Plant response ratings, summarized in Table C, are based on a scale of 0 to 100 where 0 is no effect and 100 is complete control. A dash (-) response means no test result.

[10] = tested on: small-flower umbrella sedge (Cyperus difformis); experiment: Test C flooded paddy test plant response; details: Flood, 250 g ai/ha; scale of 0 to 100 where 0 is no effect and 100 is complete control; 13 to 15 days
Method: as §3

[11] = tested on: ducksalad (Heteranthera limosa); experiment: Test C flooded paddy test plant response; details: Flood, 250 g ai/ha; scale of 0 to 100 where 0 is no effect and 100 is complete control; 13 to 15 days
Method: as §3

rice (Oryza sativa) = experiment: Test C flooded paddy test plant response; details: Flood, 250 g ai/ha; scale of 0 to 100 where 0 is no effect and 100 is complete control; 13 to 15 days
Method: as §3

[12] = 31 g ai/ha, Postemergence, 0 to 100 scale, 0 no effect, 100 complete control
[13] = 125 g ai/ha, postemergence, 0 to 100 scale, 0 no effect, 100 complete control
[14] = Preemergence, 31 g ai/ha, 0 to 100 scale (0 no effect, 100 complete control)
[15] = Preemergence, 125 g ai/ha, 0 to 100 scale where 0 is no effect and 100 is complete control
[16] = Postemergence, 500 g ai/ha, 0 to 100 scale (0 no effect, 100 complete control)
[17] = Preemergence, 500 g ai/ha, 0 to 100 scale where 0 is no effect and 100 is complete control

Row | Compound | Plant response rating, Corn (corn (Zea mays); [13]) | Plant response rating, Barnyardgrass [1, 13] | Plant response rating, Barnyardgrass [1, 15] | Plant response rating, Kochia (kochia (Kochia scoparia); [13]) | Plant response rating, Kochia (kochia (Kochia scoparia); [15]) | Plant response rating, Pigweed [2, 13] | Plant response rating, Pigweed [2, 15] | Plant response rating, Ragweed [3, 13] | Plant response rating, Ragweed [3, 15] | Plant response rating, Ryegrass, Italian [4, 13] | Plant response rating, Ryegrass, Italian [4, 15] | Plant response rating, Foxtail, Giant [5, 13] | Plant response rating, Foxtail, Giant [5, 15] | Plant response rating, Wheat [6, 13] | Plant response rating, Galium [7, 13] | Plant response rating, Blackgrass [8, 13] | Barnyardgrass plant response rating [9] | Sedge, Umbrella plant response rating [10] | Ducksalad plant response rating [11] | Rice plant response rating (rice (Oryza sativa)) | other results
1 | N#Cc1cc(-c2ccccc2Oc2ncc(Cl)cn2)no1 [Compound 38] | 0 | 0 | 0 | 30 | 0 | 20 | 40 | 0 | 0 | 0 | 0 | 0 | 0 | 0 | 30 | 0 | 0 | 0 | 60 | 0 | Plant response rating, Corn (corn (Zea mays); [12]): 0; Plant response rating, Barnyardgrass [1, 12]: 0; Barnyardgrass plant response rating [1, 14]: 0; Plant response rating, Kochia (kochia (Kochia scoparia); [12]): 0; Kochia plant response rating (kochia (Kochia scoparia); [14]): 0; Plant response rating, Pigweed [2, 12]: 0; Pigweed plant response rating [2, 14]: 0; Plant response rating, Ragweed [3, 12]: 0; Ragweed plant response rating [3, 14]: 0; Plant response rating, Ryegrass, Italian [4, 12]: 0; Ryegrass, Italian plant response rating [4, 14]: 0; Plant response rating, Foxtail, Giant [5, 12]: 0; Foxtail, Giant plant response rating [5, 14]: 0; Plant response rating, Wheat [6, 12]: 0; Plant response rating, Galium [7, 12]: 20; Plant response rating, Blackgrass [8, 12]: 0
2 | Cn1nnnc1-c1ccccc1Oc1ncc(Cl)cn1 [Compound 47] | 0 | 0 | 0 | 60 | 60 | 50 | 30 | 20 | 10 | 0 | 0 | 0 | 10 | 0 | 30 | 0 | 0 | 0 | 0 | 0 | Plant response rating, Corn (corn (Zea mays); [16]): 0; Plant response rating, Barnyardgrass [1, 16]: 0; Plant response rating, Barnyardgrass [1, 17]: 0; Plant response rating, Kochia (kochia (Kochia scoparia); [16]): 80; Plant response rating, Kochia (kochia (Kochia scoparia); [17]): 70; Plant response rating, Pigweed [2, 16]: 70; Plant response rating, Pigweed [2, 17]: 60; Plant response rating, Ragweed [3, 16]: 30; Plant response rating, Ragweed [3, 17]: 60; Plant response rating, Ryegrass, Italian [4, 16]: 0; Plant response rating, Ryegrass, Italian [4, 17]: 0; Plant response rating, Foxtail, Giant [5, 16]: 50; Plant response rating, Foxtail, Giant [5, 17]: 30; Plant response rating, Wheat [6, 16]: 10; Plant response rating, Galium [7, 16]: 60; Plant response rating, Blackgrass [8, 16]: 0
3 | Cn1nnc(-c2ccccc2Oc2ncc(Cl)cn2)n1 [Compound 48] | 0 | 0 | 0 | 50 | 60 | 70 | 80 | 50 | 50 | 0 | 40 | 0 | 10 | 0 | 70 | 40 | 0 | 0 | 0 | 0 | Plant response rating, Corn (corn (Zea mays); [16]): 10; Plant response rating, Barnyardgrass [1, 16]: 0; Plant response rating, Barnyardgrass [1, 17]: 40; Plant response rating, Kochia (kochia (Kochia scoparia); [16]): 100; Plant response rating, Kochia (kochia (Kochia scoparia); [17]): 80; Plant response rating, Pigweed [2, 16]: 100; Plant response rating, Pigweed [2, 17]: 100; Plant response rating, Ragweed [3, 16]: 70; Plant response rating, Ragweed [3, 17]: 60; Plant response rating, Ryegrass, Italian [4, 16]: 0; Plant response rating, Ryegrass, Italian [4, 17]: 50; Plant response rating, Foxtail, Giant [5, 16]: 40; Plant response rating, Foxtail, Giant [5, 17]: 50; Plant response rating, Wheat [6, 16]: 0; Plant response rating, Galium [7, 16]: 100; Plant response rating, Blackgrass [8, 16]: 60
